Experimental data taken from patent US20050277142A1, “Recombinant cell line for the detection of dioxin-like compounds based on the expression of luciferase gene” (priority 2004, published 2005).

What was measured:
[1] = system: aryl hydrocarbon receptor (AHR); conditions: 2,3,7,8-TCDD set to 1; cited from earlier work
[2] = system: dioxin-response elements (DREs)-luciferase in Hepa1c1c7-M4P2 cells; assay: luciferase light intensity bioassay in transfected cell line Hepa1c1c7-M4P2; assay type: cell-based, mouse
Protocol: (§1) The transfected cells (4×10^5 cells/well) were placed in a 24 well-culture plate. To each well was added 1 mL of culture medium (DMEM+10% FBS). Thereafter, the culture plate was placed in a constant-temperature incubator set at 37° C. and 5% CO2 for two hours to permit cell adhesion.
(§2) The Dioxin (2,3,7,8-TCDD) stock solution with a concentration of 10 μg/mL was subjected to 10-fold serial dilution. 3.22 μl of each diluted solution was taken and added to each well of the culture plate, such that the final concentrations of dioxin in the experimental groups are 10 nM, 1 nM, 100 pM, […], 10 pM, 1 pM and 0.1 pM, respectively. Each experimental group was prepared in quadruplicate. The normal control group was not subjected to any treatment, whereas the solvent control group was treated using 3.22 μl of DMSO. […]
(§3) 100 μl of the lysate obtained in each group was taken and added to each well of a non-transparent 96-well plate, followed by addition of 50 μl of luciferin (which is included in the Luciferase Assay System, (Cat#1500), Promega Cooperation). Finally, the plate was sent to a Beckman coulter DU640B spectrophotometer (set at PMT:1100; read length:0.5; and Gain:1˜100) for automatic detection of the light intensity within 20 seconds. The experimental results thus obtained were analyzed and plotted using statistical analysis, so as to determine whether the results have statistic significance. […]

[3] = system: dioxin-response elements (DREs)-luciferase in Hepa1c1c7-MP cells; assay: luciferase light intensity bioassay in transfected cell line Hepa1c1c7-MP; assay type: cell-based, mouse
Protocol: as §1, §2, §3

[4] = cited from earlier work
[5] = 100 pM 2,3,7,8-TCDD, 5, 10, 15 and 20 hours tested

For `Clc1cc2c(oc3c(Cl)c(Cl)c(Cl)c(Cl)c32)c(Cl)c1Cl` [1,2,3,4,6,7,8-HpCDF], the I-TEF [1] is listed as 0.01.

In the case of `Clc1cc2oc3cc(Cl)c(Cl)c(Cl)c3c2cc1Cl` [1,2,3,7,8-PeCDF], the I-TEF [1] is listed as 0.05.

In the case of `Clc1cc2c(cc1Cl)Oc1cc(Cl)c(Cl)cc1O2` [2,3,7,8-TCDD, 2,3,7,8-tetrachloro-dibenzo-p-dioxin], the “dioxin treatment time giving the most stable and the optimal light intensity result” value [2, 5] is given as 15 h, the “lowest limit of dioxin detection (obvious light intensity changes vs controls)” value ([2]; 15 hours treatment) is given as 5 pM and the I-TEF [1] is given as 1. For the same compound, the “dioxin treatment time giving the most stable and the optimal light intensity result” value [3, 5] was 20 h and the “lowest limit of dioxin detection (significant light intensity changes vs controls)” value ([3]; 15 hours treatment) was 5 pM.

For `Clc1c(Cl)c(Cl)c2c(c1Cl)Oc1c(Cl)c(Cl)c(Cl)c(Cl)c1O2` [OCDD], the I-TEF [1] is given as 0.001.

In the case of `Clc1cc2c(oc3c(Cl)c(Cl)c(Cl)cc32)c(Cl)c1Cl` [2,3,4,6,7,8-HxCDF], the I-TEF [1] is given as 0.1.

In the case of `Clc1cc2oc3c(Cl)c(Cl)c(Cl)c(Cl)c3c2cc1Cl` [1,2,3,4,7,8-HxCDF], the I-TEF [1] is listed as 0.1.

In the case of `Clc1cc2c(cc1Cl)Oc1c(Cl)c(Cl)c(Cl)c(Cl)c1O2` [1,2,3,4,7,8-HxCDD], the I-TEF [1] is given as 0.1.

For `Clc1cc2oc3cc(Cl)c(Cl)c(Cl)c3c2c(Cl)c1Cl` [1,2,3,7,8,9-HxCDF], the I-TEF [1] is listed as 0.1.

For `Clc1cc2oc3cc(Cl)c(Cl)cc3c2cc1Cl` [2,3,7,8-TCDF], the I-TEF [1] is listed as 0.1.

In the case of `Clc1c(Cl)c(Cl)c2c(oc3c(Cl)c(Cl)c(Cl)c(Cl)c32)c1Cl` [OCDF], the I-TEF [1] is given as 0.001.

In the case of `Clc1cc2c(cc1Cl)Oc1c(cc(Cl)c(Cl)c1Cl)O2` [1,2,3,7,8-PeCDD], the I-TEF [1] is given as 0.5.

For `Clc1cc2oc3c(Cl)c(Cl)c(Cl)c(Cl)c3c2c(Cl)c1Cl` [1,2,3,4,7,8,9-HpCDF], the I-TEF [1] is given as 0.01.

In the case of `Clc1cc2c(c(Cl)c1Cl)Oc1cc(Cl)c(Cl)c(Cl)c1O2` [1,2,3,6,7,8-HxCDD], the I-TEF [1] is listed as 0.1.

For `Clc1cc2c(c(Cl)c1Cl)Oc1c(cc(Cl)c(Cl)c1Cl)O2` [1,2,3,7,8,9-HxCDD], the I-TEF [1] is given as 0.1.

For `Clc1cc2c(c(Cl)c1Cl)Oc1c(Cl)c(Cl)c(Cl)c(Cl)c1O2` [1,2,3,4,6,7,8-HpCDD], the I-TEF [1] is given as 0.01.

For `Clc1cc2c(oc3cc(Cl)c(Cl)c(Cl)c32)c(Cl)c1Cl` [1,2,3,6,7,8-HxCDF], the I-TEF [1] is given as 0.1.

In the case of “2,3,7,8-tetrachloro-dibenzo-p-dioxin [2,3,7,8-TCDD]”, the water solubility [4] is listed as 0.0193 ng/mL.
